Data on 23 compounds can be found in patent publication US9657014B2, “Substituted 1,6-naphthyridines” (Hoffmann-La Roche Inc., priority 2012, dated 2017).

Each structure is given as a SMILES string.

In one assay the test system is human embryonic stem cell derived neural stem cells (NSCs). Nature of the assay: Neural stem cell proliferation assay (neurogenesis assay). Format: cell-based. The following applies: Homo sapiens, Neural stem cell, 96 h; Table 1, novel compounds; concentration at which 150% activity of control (100%) is reached; ATP levels (CellTiterGlo) after 4 days incubation. In outline:
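NSCs derived from human ES cells by dual SMAD inhibition, seeded on polyornithin/laminin, dosed 4 h later (11 points, 8 μM to 8 nM). After 4 days at 37° C, ATP luminescence read; response = compound/medium control ×100, EC150 = concentration giving 150% of control.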
In general terms: ATP-based viability assays read luminescence as a measure of living cells.
On to `O=C(NN1CCCCC1)c1ccc2cncc(-c3ccc(Cl)cc3)c2n1` [Example 59, 8-(4-Chlorophenyl)-N-(piperidin-1-yl)-1,6-naphthyridine-2-carboxamide], for which the EC (150% of control) turned out to be 1.48 µM.
Consider `O=C(NCc1ccccc1)c1ccc2cncc(-c3cccc(Cl)c3)c2n1` [Example 14, N-Benzyl-8-(3-chlorophenyl)-1,6-naphthyridine-2-carboxamide], for which the EC (150% of control) was found to be 0.54 µM.
Same read-out and setting: the figure for `CC(C)Oc1ccc(-c2cncc3ccc(C(N)=O)nc23)cc1` [Example 105, 8-(4-Isopropoxyphenyl)-1,6-naphthyridine-2-carboxamide] is 0.01 µM; for `COCc1cccc(-c2cncc3ccc(C(N)=O)nc23)c1` [Example 100, 8-(3-(Methoxymethyl)phenyl)-1,6-naphthyridine-2-carboxamide] it is 0.02 µM.
Same read-out and setting: the same measure for `O=C(NCC(F)(F)F)c1ccc2cncc(-c3ccc(Cl)cc3)c2n1` [Example 63, 8-(4-Chlorophenyl)-N-(2,2,2-trifluoroethyl)-1,6-naphthyridine-2-carboxamide]: 0.23 µM; for `CCCCCCNC(=O)Cc1ccc(-c2cncc3ccc(C(N)=O)nc23)cc1` [Example 150, 8-(4-(2-(Hexylamino)-2-oxoethyl)phenyl)-1,6-naphthyridine-2-carboxamide]: 0.04 µM; for `CS(=O)(=O)CCNC(=O)c1ccc2cncc(-c3ccccc3F)c2n1` [Example 133, 8-(2-Fluorophenyl)-N-(2-(methylsulfonyl)ethyl)-1,6-naphthyridine-2-carboxamide]: 0.23 µM.
On the same count and under the same terms, the same measure for `O=C(NCCCn1ccnc1)c1ccc2cncc(-c3cccc(Cl)c3)c2n1` [Example 36, N-(3-(1H-Imidazol-1-yl)propyl)-8-(3-chlorophenyl)-1,6-naphthyridine-2-carboxamide]: 1.04 µM; for `NC(=O)c1ccc2cncc(-c3cccc(Cl)c3)c2n1` [Example 167, 8-(3-Chlorophenyl)-1,6-naphthyridine-2-carboxamide]: 0.09 µM; for `CS(=O)(=O)CCNC(=O)c1ccc2cncc(-c3ccc(Cl)cc3F)c2n1` [Example 139, 8-(4-Chloro-2-fluorophenyl)-N-(2-(methylsulfonyl)ethyl)-1,6-naphthyridine-2-carboxamide]: 0.06 µM.
For the compound `O=C(NC1CC1)c1ccc2cncc(-c3ccc(Cl)cc3)c2n1` [Example 65, 8-(4-Chlorophenyl)-N-cyclopropyl-1,6-naphthyridine-2-carboxamide], the EC (150% of control) is 0.08 µM.
In turn, `CS(=O)(=O)CCNC(=O)c1ccc2cncc(-c3cccc(F)c3)c2n1` [Example 134, 8-(3-Fluorophenyl)-N-(2-(methylsulfonyl)ethyl)-1,6-naphthyridine-2-carboxamide] returned an EC (150% of control) of 0.22 µM.
With `O=C(NCC(F)(F)F)c1ccc2cncc(-c3ccc(F)cc3F)c2n1` [Example 126, 8-(2,4-Difluorophenyl)-N-(2,2,2-trifluoroethyl)-1,6-naphthyridine-2-carboxamide], the EC (150% of control) came out at 0.06 µM.
Take `NC(=O)c1ccc2cncc(-c3ccc(C(F)(F)F)cc3)c2n1` [Example 101, 8-(4-(Trifluoromethyl)phenyl)-1,6-naphthyridine-2-carboxamide]: the EC (150% of control) was determined as 0.02 µM.
`CC(C)(CO)NC(=O)c1ccc2cncc(-c3ccc(Cl)cc3)c2n1` [Example 71, 8-(4-Chlorophenyl)-N-(1-hydroxy-2-methylpropan-2-yl)-1,6-naphthyridine-2-carboxamide] came in with an EC (150% of control) of 1.06 µM.
Same read-out and setting: the figure for `O=C(c1ccc2cncc(-c3ccc(Cl)cc3)c2n1)N1CCOCC1` [Example 57, (8-(4-Chlorophenyl)-1,6-naphthyridin-2-yl)(morpholino)methanone] is 0.17 µM.
In turn, `COc1cccc(-c2cncc3ccc(C(N)=O)nc23)c1` [Example 143, 8-(3-Methoxyphenyl)-1,6-naphthyridine-2-carboxamide] displayed an EC (150% of control) of 0.24 µM.
Compound `COCCNC(=O)c1ccc2cnccc2n1` [Example 4, N-(2-Methoxyethyl)-1,6-naphthyridine-2-carboxamide] returned an EC (150% of control) of 0.5 µM.
Compound `O=C(NCC(F)(F)F)c1ccc2cncc(-c3ccc(F)c(F)c3)c2n1` [Example 127, 8-(3,4-Difluorophenyl)-N-(2,2,2-trifluoroethyl)-1,6-naphthyridine-2-carboxamide] gave an EC (150% of control) of 0.23 µM.
`CC(NC(=O)c1ccc2cncc(-c3ccc(Cl)c(F)c3)c2n1)C(C)(C)O` (centres unmarked) [Example 170, 8-(4-Chloro-3-fluorophenyl)-N-(3-hydroxy-3-methylbutan-2-yl)-1,6-naphthyridine-2-carboxamide] returned an EC (150% of control) of 0.25 µM.
`O=C(Nc1cccnc1)c1ccc2cncc(-c3ccc(Cl)cc3)c2n1` [Example 54, 8-(4-Chlorophenyl)-N-(pyridin-3-yl)-1,6-naphthyridine-2-carboxamide] showed an EC (150% of control) of 0.8 µM.

Still in this assay, the particulars now being: Homo sapiens, Neural stem cell, 96 h; Table 2, known compounds; concentration at which 150% activity of control (100%) is reached; ATP levels (CellTiterGlo) after 4 days incubation.
The compound `O=C(NCCCn1ccnc1)c1ccc2cncc(-c3ccccc3)c2n1` [Example 189, 8-Phenyl-[1,6]naphthyridine-2-carboxylic acid (3-imidazol-1-yl-propyl)-amide] came in with an EC (150% of control) of 1.2 µM.
On the same count and under the same terms, the figure for `COc1ccc(-c2cncc3ccc(C(=O)NCc4ccccc4)nc23)cc1` [Example 184, 8-(4-Methoxy-phenyl)-[1,6]naphthyridine-2-carboxylic acid benzylamide] is 0.16 µM.
